Measured values as given in PMC11857663, “Geliboluols A–D: Kaurane-Type Diterpenoids from the Marine-Derived Rare Actinomycete Actinomadura geliboluensis” (Marine Drugs, 2025).

Key:
Type in all cases: cell-based
[1] = tested on: HCT-15 (colon); test: Sulforhodamine B (SRB) cytotoxicity assay, HCT-15; conditions: Homo sapiens; HCT-15, SRB assay, 48 h; read-out: Growth inhibition 50% (GI50) HCT-15
Protocol: (§1) Compounds 1–5 were further evaluated for their cytotoxicity against six solid cancer cell lines and a normal cell line: ACHN (renal), MDA-MB-231 (breast), PC-3 (prostate), NUGC-3 (stomach), NCI-H23 (lung), HCT-15 (colon), and MRC-9 (lung fibroblast, normal cell line). […] Additionally, compounds 1–5 were evaluated for their antimicrobial properties by applying the broth microdilution method, described by the Clinical and Laboratory Standards Institute, against three Gram-positive bacteria, Bacillus subtilis (KCTC 1021), Micrococcus luteus (KCTC 1915), and Staphylococcus aureus (KCTC 1927), and three Gram-negative bacteria, Escherichia coli (KCTC 2441), Salmonella enterica serovar Typhimurium (KCTC 2515), and Klebsiella pneumoniae (KCTC 2690).
(§2) The cytotoxicity test was conducted with CTG luminescent cell viability and SRB assay according to the published procedures. Briefly, blood cancer cell lines and a normal cell line were obtained from the American Type Culture Collection (Manassas, VA, USA) (HL-60: acute myelogenous leukemia, Raji: Burkitt’s lymphoma, NALM6 C. G5: B-cell acute lymphocytic leukemia, K562: chronic myelogenous leukemia, U266: multiple myeloma, and RPMI-1788: B lymphocytes) and the DSMZ-German Collection of Microorganisms and Cell Cultures (WSU-DLCL2: diffuse large B-cell lymphoma and RPMI-8402: T-cell acute lymphocytic leukemia). The cell lines were incubated in RPMI 1640 supplemented with 10% fetal bovine serum, penicillin (100 IU/mL), and streptomycin (100 µg/mL) at 37 °C under a humidified atmosphere of 5% CO2. The cells with a passage number between 8 and 12 were used. The cell lines were prepared in an opaque-walled 96-well plate (8 × 10^3 cells/well), and the compounds (1–5 and doxorubicin as a positive control) with 0.1% DMSO were added to each well and incubated for 48 h. The cell cultures were then treated with 100 µL of CellTiter-Glo Reagent (Promega, Madison, WI, USA) and kept for 10 min to acquire a luminescence signal. Luminescence measurements were performed with the GloMax-Multi Detection System (Promega, Madison, WI, USA). The solid cancer cell lines and the normal cell line were obtained from the American Type Culture Collection (Manassas, VA, USA) (ACHN: renal, MDA-MB-231: breast, PC-3: prostate, NCI-H23: lung, HCT-15: colon, and MRC-9: lung fibroblast) and the Japanese Cancer Research Resources Bank (JCRB) (NUGC-3: stomach). The cell lines were incubated in RPMI 1640 supplemented with 10% fetal bovine serum, penicillin (100 IU/mL), and streptomycin (100 µg/mL) at 37 °C under a humidified atmosphere of 5% CO2. The cells with a passage number between 8 and 12 were used. The cells were then prepared in a 96-well plate (8 × 10^3 cells/well), and the compounds (1–5 and adriamycin as a positive control) with 0.1% DMSO were added to each well. After incubation for 48 h, the cell cultures were fixed using 50% trichloroacetic acid ([…]) and were dyed with 0.4% SRB in 1% acetic acid. Unbound dye was washed using 1% acetic acid and protein-bound dye was collected with 10 mM Tris base (pH 10.5) to measure optical density. Absorbance was measured at 540 nm with a VersaMax microplate reader (Molecular Devices, Sunnyvale, CA, USA) and GI50 values were calculated by GraphPad Prism 4.0 (GraphPad, San Diego, CA, USA).

[2] = tested on: U266 (multiple myeloma); test: CellTiter-Glo (CTG) cytotoxicity assay, U266; conditions: Homo sapiens, U-266, 48 h, read-out: Growth inhibition 50% (GI50) U266
Protocol: (§3) Compounds 1–5 were evaluated for their cytotoxicity against seven blood cancer cell lines, the most common cancer types in Korea, along with a normal cell line: HL-60 (acute myelogenous leukemia, AML), Raji (Burkitt’s lymphoma), WSU-DLCL2 (diffuse large B-cell lymphoma, DLBCL), NALM6 C. G5 (B-cell acute lymphocytic leukemia, B-ALL), K562 (chronic myelogenous leukemia, CML), RPMI-8402 (T-cell acute lymphocytic leukemia, T-ALL), U266 (multiple myeloma), and RPMI-1788 (B lymphocytes, normal cell line).
as §2

[3] = tested on: RPMI-1788 (B lymphocytes, normal cell line); test: CellTiter-Glo (CTG) cytotoxicity assay, RPMI-1788 normal cell line; conditions: 48 h, read-out: Growth inhibition 50% (GI50) RPMI-1788
Protocol: as §3, §2

[4] = tested on: MDA-MB-231 (breast); test: Sulforhodamine B (SRB) cytotoxicity assay, MDA-MB-231; conditions: Homo sapiens; MDA-MB-231, SRB assay, 48 h; read-out: Growth inhibition 50% (GI50) MDA-MB-231
Protocol: as §1, §2

[5] = tested on: NALM6 C. G5 (B-cell acute lymphocytic leukemia, B-ALL); test: CellTiter-Glo (CTG) cytotoxicity assay, NALM6 C. G5; conditions: Homo sapiens, NALM-6, 48 h, read-out: Growth inhibition 50% (GI50) NALM6 C. G5
Protocol: as §3, §2

[6] = tested on: NUGC-3 (stomach); test: Sulforhodamine B (SRB) cytotoxicity assay, NUGC-3; conditions: Homo sapiens; NUGC-3, SRB assay, 48 h; read-out: Growth inhibition 50% (GI50) NUGC-3
Protocol: as §1, §2

[7] = tested on: RPMI-8402 (T-cell acute lymphocytic leukemia, T-ALL); test: CellTiter-Glo (CTG) cytotoxicity assay, RPMI-8402; conditions: Homo sapiens; RPMI-8402, CTG assay, 48 h; read-out: Growth inhibition 50% (GI50) RPMI-8402
Protocol: as §3, §2

[8] = tested on: K562 (chronic myelogenous leukemia, CML); test: CellTiter-Glo (CTG) cytotoxicity assay, K562; conditions: Homo sapiens, 48 h, read-out: Growth inhibition 50% (GI50) K562
Protocol: as §3, §2

[9] = tested on: ACHN (renal); test: Sulforhodamine B (SRB) cytotoxicity assay, ACHN; conditions: Homo sapiens, 48 h, read-out: Growth inhibition 50% (GI50) ACHN
Protocol: as §1, §2

[10] = tested on: NCI-H23 (lung); test: Sulforhodamine B (SRB) cytotoxicity assay, NCI-H23; conditions: Homo sapiens, 48 h, read-out: Growth inhibition 50% (GI50) NCI-H23
Protocol: as §1, §2

[11] = tested on: PC-3 (prostate); test: Sulforhodamine B (SRB) cytotoxicity assay, PC-3; conditions: PC-3, SRB assay, 48 h; read-out: Growth inhibition 50% (GI50) PC-3
Protocol: as §1, §2

[12] = tested on: WSU-DLCL2 (diffuse large B-cell lymphoma, DLBCL); test: CellTiter-Glo (CTG) cytotoxicity assay, WSU-DLCL2; conditions: Homo sapiens, WSUDLCL2, 48 h, read-out: Growth inhibition 50% (GI50) WSU-DLCL2
Protocol: as §3, §2

[13] = tested on: Raji (Burkitt's lymphoma); test: CellTiter-Glo (CTG) cytotoxicity assay, Raji; conditions: Homo sapiens, 48 h, read-out: Growth inhibition 50% (GI50) Raji
Protocol: as §3, §2

[14] = tested on: MRC-9 (lung fibroblast, normal cell line); test: Sulforhodamine B (SRB) cytotoxicity assay, MRC-9 normal cell line; conditions: MRC9, 48 h, read-out: Growth inhibition 50% (GI50) MRC-9
Protocol: as §1, §2

[15] = tested on: HL-60 (acute myelogenous leukemia, AML); test: CellTiter-Glo (CTG) cytotoxicity assay, HL-60; conditions: Homo sapiens; HL-60, CTG assay, 48 h; read-out: Growth inhibition 50% (GI50) HL-60
Protocol: as §3, §2

[16] = tested on: solid cancer cell lines; test: SRB cytotoxicity assay, panel of solid cancer cell lines; conditions: six solid cancer cell lines or the normal cell line, 48 h, read-out: GI50 values against solid cancer cell lines (range over the panel)
Protocol: as §1
(§4) The cytotoxicity test was conducted with CTG luminescent cell viability and SRB assay according to the published procedures. […] The cell cultures were then treated with 100 µL of CellTiter-Glo Reagent (Promega, Madison, WI, USA) and kept for 10 min to acquire a luminescence signal. Luminescence measurements were performed with the GloMax-Multi Detection System (Promega, Madison, WI, USA). […] Absorbance was measured at 540 nm with a VersaMax microplate reader (Molecular Devices, Sunnyvale, CA, USA) and GI50 values were calculated by GraphPad Prism 4.0 (GraphPad, San Diego, CA, USA).

[17] = tested on: blood cancer cell lines; test: CTG cytotoxicity assay, panel of blood cancer cell lines; conditions: 48 h, read-out: GI50 values against blood cancer cell lines (range over the panel)
Protocol: as §3, §4

Structure (SMILES) | GI50 [1] | GI50 [2] | GI50 [3] | GI50 [4] | GI50 [5] | GI50 [6] | GI50 [7] | GI50 [8] | GI50 [9] | GI50 [10] | GI50 [11] | GI50 [12] | GI50 [13] | GI50 [14] | GI50 [15] | GI50 [16] | GI50 [17]
COc1cccc2c1C(=O)c1c(O)c3c(c(O)c1C2=O)C[C@@](O)(C(=O)CO)C[C@@H]3O[C@H]1C[C@H](N)[C@H](O)[C@H](C)O1 [Doxorubicin, reference compound] | 0.305 µM | 0.112 µM | 0.012 µM | 0.21 µM | 0.007 µM | 0.245 µM | 0.035 µM | 0.094 µM | 0.222 µM | 0.221 µM | 0.106 µM | 0.008 µM | 0.014 µM | 0.314 µM | 0.029 µM |  | 
C=C1C[C@@]23C[C@@H]1CC[C@]2(O)[C@@]1(C)CC[C@H](O)C(C)(C)[C@@H]1[C@H](O)C3 [compound 1, geliboluol A] | > 30 µM | > 30 µM | > 30 µM | > 30 µM | > 30 µM | > 30 µM | > 30 µM | > 30 µM | > 30 µM | > 30 µM | > 30 µM | > 30 µM | > 30 µM | > 30 µM | > 30 µM |  | 
C=C1C[C@@]23C[C@@H]1CC[C@]2(O)[C@@]1(C)[C@@H](O)CCC(C)(C)[C@@H]1[C@H](O)C3 [compound 2, geliboluol B] | > 30 µM | > 30 µM | > 30 µM | > 30 µM | > 30 µM | > 30 µM | > 30 µM | > 30 µM | > 30 µM | > 30 µM | > 30 µM | > 30 µM | > 30 µM | > 30 µM | > 30 µM |  | 
C=C1C[C@@]23C[C@@H]1CC[C@]2(O)[C@@]1(C)CCC[C@@](C)(CO)[C@@H]1[C@H](O)C3 [compound 3, geliboluol C] | > 30 µM | > 30 µM | > 30 µM | > 30 µM | > 30 µM | > 30 µM | > 30 µM | > 30 µM | > 30 µM | > 30 µM | > 30 µM | > 30 µM | > 30 µM | > 30 µM | > 30 µM |  | 
C=C1C2CCC3(O)C4(C)CCCC(C)(CO)C4C(O)CC3(C2)C1O (centres unmarked) [compound 4, geliboluol D] | 5.73 µM | > 30 µM | 4.52 µM | 5.73 µM | 2.59 µM | 4.34 µM | 8.51 µM | 19.6 µM | 4.58 µM | 5.13 µM | 6.5 µM | 3.48 µM | 2.73 µM | 7.23 µM | 11.2 µM | 4.34 to 7.23 µM | 2.59 to 19.6 µM
C=C1C[C@@]23C[C@@H]1CC[C@]2(O)[C@@]1(C)CCCC(C)(C)[C@@H]1[C@H](O)C3 [compound 5] | > 30 µM | 22.5 µM | 9.56 µM | > 30 µM | 7.34 µM | > 30 µM | 11.1 µM | 11.9 µM | > 30 µM | > 30 µM | > 30 µM | 5.93 µM | 4.58 µM | > 30 µM | 16.4 µM |  | 
